In brackets after ≈: the same amount, converted by molar mass.

For one data set, the system named is Escherichia coli. Put plainly: Antibacterial activity against Escherichia coli assessed as inhibition of visible growth after 48 hrs by agar dilution method. It is filed as functional.
Another data set has as its system Aspergillus fumigatus. The data set can be described thus: Antifungal activity against Aspergillus fumigatus assessed as inhibition of visible growth after 48 hrs by agar dilution method. The format is functional.
Another data set deals with Staphylococcus aureus. The data set can be described thus: Antibacterial activity against Staphylococcus aureus assessed as inhibition of visible growth after 48 hrs by agar dilution method. It is filed as functional.
Data set [1] relates to Mycobacterium tuberculosis. The data set can be described thus: Antitubercular activity against Mycobacterium tuberculosis H37Rv assessed as inhibition of colonies after 30 days by agar microdilution method. The format is functional.
A further data set relates to Streptococcus pneumoniae. Put plainly: Antibacterial activity against Streptococcus pneumoniae assessed as inhibition of visible growth after 48 hrs by agar dilution method. It is filed as functional.
In a further data set the test system is Candida albicans. Put plainly: Antifungal activity against Candida albicans assessed as inhibition of visible growth after 48 hrs by agar dilution method. The format is functional.
In a further data set the test system is Aspergillus niger. The data set can be described thus: Antifungal activity against Aspergillus niger assessed as inhibition of visible growth after 48 hrs by agar dilution method. It is filed as functional.
Data set [2] in a line: Cytotoxicity against african green monkey Vero C1008 cells at 0.01 to 0.1 ug/ml by neutral red uptake assay. As to conditions: chlorocebus sabaeus. It is filed as cell-based.

In the case of `O=C1C(Cl)C(c2ccc(Cl)cc2)N1/N=C/CCn1nnc2ccccc21` (configuration not stated), the MIC is 0.1 µg/mL (≈ 0.258 µM) in the data set with Escherichia coli; 0.5 µg/mL (≈ 1.29 µM) with Aspergillus fumigatus; 0.1 µg/mL (≈ 0.258 µM) with Staphylococcus aureus; greater than 3.12 µg/mL in data set [1]; 0.5 µg/mL (≈ 1.29 µM) with Streptococcus pneumoniae; 0.5 µg/mL (≈ 1.29 µM) in the data set on Candida albicans. Besides, in the data set with Aspergillus niger, the MIC turned out to be 1 µg/mL (≈ 2.58 µM).
Regarding `COc1ccc(C2C(Cl)C(=O)N2/N=C/CCn2nnc3ccccc32)cc1` (configuration not stated), the MIC in the data set on Escherichia coli was 1 µg/mL (≈ 2.61 µM); in the data set on Aspergillus fumigatus, 0.1 µg/mL (≈ 0.261 µM); in the data set with Staphylococcus aureus, 1 µg/mL (≈ 2.61 µM); in data set [1] it was greater than 12.5 µg/mL; in the data set on Streptococcus pneumoniae, 0.5 µg/mL (≈ 1.3 µM); with Candida albicans, 0.1 µg/mL (≈ 0.261 µM). In addition, in the data set on Aspergillus niger, the MIC came to 0.1 µg/mL (≈ 0.261 µM).
For the molecule `COc1ccccc1C1C(Cl)C(=O)N1/N=C/CCn1nnc2ccccc21` (configuration not stated), the MIC with Escherichia coli is 2 µg/mL (≈ 5.21 µM); in the data set on Aspergillus fumigatus it was 0.1 µg/mL (≈ 0.261 µM); with Staphylococcus aureus it was 1 µg/mL (≈ 2.61 µM); in data set [1], greater than 6.25 µg/mL; in the data set with Streptococcus pneumoniae, 0.5 µg/mL (≈ 1.3 µM); with Candida albicans, 0.1 µg/mL (≈ 0.261 µM). In addition, in the data set on Aspergillus niger, the MIC is 0.1 µg/mL (≈ 0.261 µM).
As for `CC1COc2c(N3CCN(C)CC3)c(F)cc3c(=O)c(C(=O)O)cn1c23` (configuration not stated) [OFLOXACIN], the MIC in the data set on Escherichia coli, with Staphylococcus aureus and in the data set on Streptococcus pneumoniae was 0.1 µg/mL (≈ 0.277 µM) each time.
On to `O=C1C(Cl)C(c2ccccc2)N1/N=C/CCn1nnc2ccccc21` (configuration not stated), for which the minimum inhibitory concentration (MIC) with Escherichia coli was 1 µg/mL (≈ 2.83 µM); in the data set on Aspergillus fumigatus, 1 µg/mL (≈ 2.83 µM); in the data set on Staphylococcus aureus, 1 µg/mL (≈ 2.83 µM); in data set [1], greater than 12.5 µg/mL; in the data set on Streptococcus pneumoniae it was 0.5 µg/mL (≈ 1.41 µM); in the data set on Candida albicans, 1 µg/mL (≈ 2.83 µM). For the same molecule, the minimum inhibitory concentration (MIC) in the data set on Aspergillus niger was 1 µg/mL (≈ 2.83 µM). Further, the Activity result in data set [2] is on record as “Non-toxic”.
Take `O=C1C(Cl)C(c2ccccc2Br)N1/N=C/CCn1nnc2ccccc21` (configuration not stated): the MIC with Escherichia coli was 0.1 µg/mL (≈ 0.231 µM); with Aspergillus fumigatus, 0.5 µg/mL (≈ 1.16 µM); in the data set on Staphylococcus aureus it was 0.1 µg/mL (≈ 0.231 µM); in data set [1] it was greater than 3.12 µg/mL; with Streptococcus pneumoniae, 0.5 µg/mL (≈ 1.16 µM); with Candida albicans it was 1 µg/mL (≈ 2.31 µM). For the same molecule, the minimum inhibitory concentration (MIC) in the data set on Aspergillus niger was found to be 0.5 µg/mL (≈ 1.16 µM).
Regarding `CN[C@@H]1[C@H](O[C@H]2[C@H](O[C@H]3[C@H](O)[C@@H](O)[C@H](N=C(N)N)[C@@H](O)[C@@H]3N=C(N)N)O[C@@H](C)[C@]2(O)C=O)O[C@@H](CO)[C@H](O)[C@H]1O` [STREPTOMYCIN], the minimal inhibitory concentration (MIC) in data set [1] is 4 µg/mL (≈ 6.88 µM).
As to `Clc1ccc(COC(Cn2ccnc2)c2ccc(Cl)cc2Cl)c(Cl)c1` (configuration not stated) [MICONAZOLE], the MIC with Aspergillus fumigatus, in the data set with Candida albicans and with Aspergillus niger was 0.1 µg/mL (≈ 0.24 µM) in each case.
Consider `O=C1C(Cl)C(c2ccccc2[N+](=O)[O-])N1/N=C/CCn1nnc2ccccc21` (configuration not stated), for which the MIC in the data set on Escherichia coli was 0.5 µg/mL (≈ 1.25 µM); in the data set with Aspergillus fumigatus it was 0.1 µg/mL (≈ 0.251 µM); in the data set with Staphylococcus aureus, 0.5 µg/mL (≈ 1.25 µM); in data set [1] it was greater than 3.12 µg/mL; in the data set on Streptococcus pneumoniae, 0.1 µg/mL (≈ 0.251 µM); in the data set with Candida albicans, 0.1 µg/mL (≈ 0.251 µM). Moreover, in the data set with Aspergillus niger, the minimal inhibitory concentration (MIC) is 0.1 µg/mL (≈ 0.251 µM).
Consider `O=C1C(Cl)C(c2ccc([N+](=O)[O-])cc2)N1/N=C/CCn1nnc2ccccc21` (configuration not stated), for which the MIC in the data set on Escherichia coli was 0.5 µg/mL (≈ 1.25 µM); with Aspergillus fumigatus, 0.5 µg/mL (≈ 1.25 µM); in the data set with Staphylococcus aureus, 0.1 µg/mL (≈ 0.251 µM); in data set [1], greater than 1.56 µg/mL; in the data set with Streptococcus pneumoniae it was 0.5 µg/mL (≈ 1.25 µM); in the data set with Candida albicans, 0.1 µg/mL (≈ 0.251 µM). In the data set on Aspergillus niger, the MIC was determined as 0.5 µg/mL (≈ 1.25 µM).
In the case of `O=C1C(Cl)C(c2cccc(Br)c2)N1/N=C/CCn1nnc2ccccc21` (configuration not stated), the MIC in the data set with Escherichia coli came to 0.1 µg/mL (≈ 0.231 µM); in the data set on Aspergillus fumigatus it was 0.1 µg/mL (≈ 0.231 µM); with Staphylococcus aureus, 0.1 µg/mL (≈ 0.231 µM); in data set [1] it was 6.25 µg/mL (≈ 14.4 µM); with Streptococcus pneumoniae, 0.1 µg/mL (≈ 0.231 µM); in the data set with Candida albicans, 0.5 µg/mL (≈ 1.16 µM). In addition, the MIC in the data set on Aspergillus niger came to 0.1 µg/mL (≈ 0.231 µM).
Consider `O=C1C(Cl)C(c2ccccc2Cl)N1/N=C/CCn1nnc2ccccc21` (configuration not stated), for which the MIC with Escherichia coli is 0.1 µg/mL (≈ 0.258 µM); with Aspergillus fumigatus, 0.5 µg/mL (≈ 1.29 µM); in the data set with Staphylococcus aureus, 0.5 µg/mL (≈ 1.29 µM); in data set [1], 3.12 µg/mL (≈ 8.05 µM); with Streptococcus pneumoniae it was 0.1 µg/mL (≈ 0.258 µM); in the data set with Candida albicans, 1 µg/mL (≈ 2.58 µM). Moreover, the MIC in the data set on Aspergillus niger turned out to be 0.5 µg/mL (≈ 1.29 µM).
Take `CC[C@@H](CO)NCCN[C@@H](CC)CO` [ETHAMBUTOL]: in data set [1], the minimum inhibitory concentration (MIC) amounted to 1 µg/mL (≈ 4.89 µM).

(Values after ChEMBL document CHEMBL1641575, “Conventional and microwave assisted synthesis of 2-oxo-4-substituted aryl-azetidine derivatives of benzotriazole: a new class of biological compounds” (Bioorg Med Chem Lett, 2011).)
